Test results taken from US5604226A, “Pyridazinone derivatives, processes for production thereof and use thereof” (Nihon Nohyaku Co., Ltd., priority 1993, dated 1997).

Columns and labels:
[1] = tested on: Platelet aggregation (ADP, rabbit platelet rich plasma); experiment: Platelet aggregation inhibition in rabbit PRP, ADP-induced, Born's turbidimetry (Experiment 1); format: cell-based; settings: Oryctolagus cuniculus, 0.05 h, ADP 2 to 4 μM, 3 min incubation, read-out: Aggregation Inhibition Rate; for inhibition at 1 µg/mL: 10^-6 g/ml; for inhibition at 0.1 µg/mL: 10^-7 g/ml
Description: Blood was collected from the ear vein of rabbit, together with 1/10 volume sodium citrate. Centrifugation at 1,200 rpm for 10 minutes gave the supernatant which was made platelet rich plasma (PRP). The blood was further centrifuged at 3,000 rpm for 10 minutes to give platelet poor plasma (PPP). The platelet count of PRP was adjusted to 300,000/μl with PPP, which was provided for the test. Platelet aggregation was determined with aggregometer (HEMATRACERVI, Niko Bioscience Co.) based on Born's turbidimetry. That is, 200 μl of PRP was charged in a cell and 1 μl of a drug solution dissolved in dimethylsulfoxide was added thereto. After incubation for 3 minutes, ADP was added in a concentration of 2 to 4 μM to cause aggregation. Change in transmittance in the cell was then monitored. The results are shown in Table 2, in terms of aggregation inhibition rate which was determined by comparing a transmittance of control with that obtained at the maximum aggregation on an aggregation curve when the transmittance of PRP was made 0% and the transmittance of PPP was made 100%.

[2] = tested on: thrombocytopenia in mice (collagen-induced, platelet count); experiment: Activity of preventing thrombocytopenia in mice, collagen i.v. (Experiment 3); format: in vivo, male ddY mice; settings: Mus musculus, 3.0 mg/kg oral, 1 hour before collagen 0.5 mg/kg i.v., * p = 5%, ** p = 1%, *** p = 0.1%, read-out: Average Inhibition Rate (platelet count; normal mouse 100, control mouse 0)
Description: Activity of preventing thrombocytopenia in mice:
Collagen (Holm Co.) diluted with physiological saline was intravenously given through the vein to male ddY mice of 6 weeks old, weighing 28-31 g, which had been fasted for 4-5 hours, in a dose of 0.5 mg/kg. Five minutes after, blood was collected from the lower thigh vein under pentobarbital anesthesia through a plastic syringe treated with heparin containing 3.8% sodium citrate. The drug was orally given an hour before the collagen administration. The platelet count was measured with Sysmex E-4000. The inhibition activity is shown in terms of percentage of the platelet count when the platelet count of normal mouse was made 100 and the platelet count of control mouse was made 0.

Compound | inhibition at 1 µg/mL [1] | inhibition at 0.1 µg/mL [1] | inhibition in vivo at 3 mg/kg [2]
O=c1[nH]nc(OCCCc2ccccc2)c(NCc2cccnc2)c1Br [Comparative Compound A, reference compound] | 100% | 84% | –
COc1ccc(CNc2c(OCCOc3ccccc3)n[nH]c(=O)c2Br)cc1OC [Comparative Compound B, reference compound] | – | 79% | –
O=c1[nH]nc(OCCSc2ccccc2)c(NCc2cccnc2)c1Cl [Compound 1] | 100% | 37% | –
O=c1[nH]nc(OCCCSc2ccccc2)c(NCc2cccnc2)c1Cl [Compound 2, 4-chloro-6-[3-(phenylthio)propyloxy]-5-(3-picolylamino)-3(2H)-pyridazinone] | 100% | 27% | –
COc1ccc(CNc2c(OCCSc3ccccc3)n[nH]c(=O)c2Cl)cc1OC [Compound 4] | 100% | 100% | –
COc1ccc(CNc2c(OCCSc3ccccc3)n[nH]c(=O)c2Br)cc1OC [Compound 6, 4-bromo-5-(3,4-dimethoxyphenylmethyl-amino)-6-[2-(phenylthio)ethyloxy]-3(2H)-pyridazinone] | 100% | 100% | 33%
COc1ccc(CNc2c(OCCCSc3ccccc3)n[nH]c(=O)c2Br)cc1OC [Compound 7] | 100% | 74% | –
COc1ccc(CNc2c(OCCS(=O)(=O)c3ccccc3)n[nH]c(=O)c2Br)cc1OC [Compound 10, 4-bromo-5-(3,4-dimethoxyphenylmethylamino)-6-[2-(phenylsulfonyl)ethyloxy]-3(2H)-pyridazinone] | – | 100% | –
COc1ccc(CNc2c(OCCCS(=O)(=O)c3ccccc3)n[nH]c(=O)c2Br)cc1OC [Compound 11] | – | 71% | –
COc1ccc(CNc2c(OCCSc3ccccc3)nn(CN3CCOCC3)c(=O)c2Br)cc1OC [Compound 12] | – | 100% | 43%
COc1ccc(CNc2c(OCC[S+]([O-])c3ccccc3)nn(CN3CCOCC3)c(=O)c2Br)cc1OC (stereo not drawn) [Compound 13] | – | 100% | –
COc1ccc(CNc2c(OCCSc3ccc(F)cc3)n[nH]c(=O)c2Br)cc1OC [Compound 14, 4-bromo-5-(3,4-dimethoxyphenylmethylamino)-6-[2-(4fluorophenylthio)ethyloxy]-3(2H)-pyridazinone] | – | 100% | 23.3%
COc1ccc(CNc2c(OCC[S+]([O-])c3ccc(F)cc3)n[nH]c(=O)c2Br)cc1OC (stereo not drawn) [Compound 15, 4-bromo-5-(3,4-dimethoxyphenylmethyl-amino)-6-[2-(4-fluorophenylsulfinyl)ethyloxy]-3(2H)-pyridazinone] | – | 100% | 52.4%
COc1ccc(CNc2c(OCCS(=O)(=O)c3ccc(F)cc3)n[nH]c(=O)c2Br)cc1OC [Compound 16, 4-bromo-6-[2-(4-fluorophenylsulfonyl)ethyloxy]-5-(3,4-dimethoxyphenylmethylamino)-3(2H)-pyridazinone] | – | 100% | 35.7%
COc1ccc(CNc2c(OCCSc3ccc(F)cc3)nn(CN3CCN(C)CC3)c(=O)c2Br)cc1OC [Compound 17, 4-bromo-5-(3,4-dimethoxyphenylmethylamino)-6-[2-(4-fluorophenylthio)ethyloxy]-2-(4-methylpiperazinlylmethyl)-3(2H)-pyridazinone] | – | 100% | –
COc1ccc(CNc2c(OCCSc3ccccc3Cl)n[nH]c(=O)c2Br)cc1OC [Compound 18] | – | 100% | 30.1%
COc1ccc(CNc2c(OCC[S+]([O-])c3ccccc3Cl)n[nH]c(=O)c2Br)cc1OC (stereo not drawn) [Compound 19, 4-bromo-6-[2-(2-chlorophenylsulfinyl)ethyloxy]-5-(3,4-dimethoxyphenylmethylamino)-3(2H)-pyridazinone] | – | 100% | 33.8%

Compound | inhibition at 1 µg/mL [1] | inhibition at 0.1 µg/mL [1] | inhibition in vivo at 3 mg/kg [2]
COc1ccc(CNc2c(OCCSc3cccc(Cl)c3)n[nH]c(=O)c2Br)cc1OC [Compound 20] | 100% | 90% | –
O=c1[nH]nc(OCCSc2ccc(Cl)cc2)c(NCc2cccnc2)c1Cl [Compound 23] | 100% | 100% | –
COc1ccc(CNc2c(OCCSc3ccc(Cl)cc3)n[nH]c(=O)c2Cl)cc1OC [Compound 24] | 100% | 100% | –
Cc1ccc(SCCOc2n[nH]c(=O)c(Cl)c2NCc2cccnc2)cc1 [Compound 27] | 100% | 80% | –
COc1ccc(CNc2c(OCCSc3ccc(C)cc3)n[nH]c(=O)c2Cl)cc1OC [Compound 28] | 100% | 100% | –
COc1ccc(CNc2c(OCC[S+]([O-])c3ccc(C)cc3)n[nH]c(=O)c2Cl)cc1OC (stereo not drawn) [Compound 29] | 100% | 100% | –
COc1ccc(CNc2c(OCC[S+]([O-])c3ccc(C)cc3)n[nH]c(=O)c2Br)cc1OC (stereo not drawn) [Compound 30, 4-bromo-5-(3,4-dimethoxyphenylmethylamino)-6-[2-(p-tolylsulfinyl)ethyloxy]-3(2H)-pyridazinone] | 100% | 100% | –
COc1ccc(CNc2c(OCCSc3ccc(C)cc3C)n[nH]c(=O)c2Br)cc1OC [Compound 31, 4-bromo-5-(3,4-dimethoxyphenylmethylamino)-6-[2-(2,4-dimethylphenylthio)ethyloxy]-3(2H)-pyridazinone] | – | 100% | –
COc1ccc(CNc2c(OCC[S+]([O-])c3ccc(C)cc3C)n[nH]c(=O)c2Br)cc1OC (stereo not drawn) [Compound 32, 4-bromo-5-(3,4-dimethoxyphenylmethyl-amino)-6-[2-(2,4-dimethylphenylsulfinyl)ethyloxy]-3(2H)pyridazinone] | – | 100% | –
COc1ccc(CNc2c(OCCS(=O)(=O)c3ccc(C)cc3C)n[nH]c(=O)c2Br)cc1OC [Compound 33, 4-bromo-5-(3,4-dimethoxyphenylmethyl-amino)-6-[2-(2,4-dimethylphenylsulfonyl)ethyloxy]-3(2H)-pyridazinone] | – | 100% | –
COc1ccc(SCCOc2n[nH]c(=O)c(Cl)c2NCc2cccnc2)cc1 [Compound 34] | 100% | 64% | –
COc1ccc(SCCOc2n[nH]c(=O)c(Cl)c2NCc2ccc(OC)c(OC)c2)cc1 [Compound 35] | 100% | 83% | –
COc1ccc(S(=O)(=O)CCOc2n[nH]c(=O)c(Cl)c2NCc2ccc(OC)c(OC)c2)cc1 [Compound 36] | 100% | 83% | –
COc1ccc(CNc2c(OCCSc3ccc(C#N)cc3)n[nH]c(=O)c2Br)cc1OC [Compound 37] | 100% | 100% | 35.4%
COc1ccc(CNc2c(OCC[S+]([O-])c3ccc(C#N)cc3)n[nH]c(=O)c2Br)cc1OC (stereo not drawn) [Compound 38] | – | 100% | 21.8%
COc1ccc(CNc2c(OCC[S+]([O-])c3ccc([N+](=O)[O-])cc3)n[nH]c(=O)c2Br)cc1OC (stereo not drawn) [Compound 40] | – | – | 40.8%
CCN(CC)C(=O)c1ccc(SCCOc2n[nH]c(=O)c(Br)c2NCc2ccc(OC)c(OC)c2)cc1 [Compound 41] | – | 100% | –
